Values of other authors as cited in US7442834B2, “Process suitable for industrial scale production of gabapentin” (priority 2006, dated 2008).

Experiments:
[1] = in vivo
[2] = from U.S. Pat. No. 6,518,456

SMILES | LD50 (cytotoxicity) [1] | isoelectric point (pH) [2]
O=C1CC2(CCCCC2)CN1 [IV, 3,3-pentamethylenebutyrolactam] | 300 mg/kg | –
NCC1(CC(=O)O)CCCCC1 [gabapentin (I), 1-(aminomethyl)-1-cyclohexaneacetic acid] | > 8000 mg/kg | 7.1-7.2
